Results reported in PubChem BioAssay AID652166 (The Scripps Research Institute Molecular Screening Center, 2013).
Active and inactive are the calls of the source. The rule behind the calls is not given here.

Test system: NOD2-RIPK2 signaling cell assay, absorbance 620 nm
Assay: cellular NOD2-RIPK2 pathway inhibition potency – cell-based, absorbance 620 nm, late-stage follow-up (AID 652166)

Row | SMILES | IC50
1 | Cc1ccc(S(=O)(=O)N2CCCCCC2)cc1[N+](=O)[O-] | > 10 µM (inactive)
2 | O=S(=O)(c1ccc(F)cc1)N1CCCCCC1 | > 10 µM (inactive)
3 | O=[N+]([O-])c1cccc(S(=O)(=O)N2CCCCCC2)c1 | > 10 µM (inactive)
4 | Cc1cc(S(=O)(=O)N2CCCCCC2)ccc1F | > 10 µM (inactive)
5 | O=[N+]([O-])c1cc(S(=O)(=O)N2CCCCCC2)ccc1F | > 10 µM (inactive)

Other lines, results leading:

Row | IC50 | SMILES
6 | > 10 µM (inactive) | COc1ccc(C(C[N+](=O)[O-])n2nc(C)cc2C)cc1 (stereo unspecified)
7 | > 10 µM (inactive) | Cc1ncc([N+](=O)[O-])n1Cc1ccc(Cl)c(Cl)c1
8 | > 10 µM (inactive) | O=S(=O)(c1ccccc1)N1CCCCCC1
9 | > 10 µM (inactive) | Cc1nc([N+](=O)[O-])c(Br)n1Cc1ccc(Cl)c(Cl)c1
10 | > 10 µM (inactive) | Cc1ccc(C(C[N+](=O)[O-])n2nc(C)cc2C)cc1 (stereo unspecified)
11 | > 10 µM (inactive) | Cc1nc([N+](=O)[O-])c(Br)n1Cc1ccccc1
